One data set deals with T1, OAT3 (Homo sapiens, UniProt Q8TCC7).
T1 construct: expressed in transfected cells; host or cells: MDCK-II
T1 sequence (Q8TCC7 1-542): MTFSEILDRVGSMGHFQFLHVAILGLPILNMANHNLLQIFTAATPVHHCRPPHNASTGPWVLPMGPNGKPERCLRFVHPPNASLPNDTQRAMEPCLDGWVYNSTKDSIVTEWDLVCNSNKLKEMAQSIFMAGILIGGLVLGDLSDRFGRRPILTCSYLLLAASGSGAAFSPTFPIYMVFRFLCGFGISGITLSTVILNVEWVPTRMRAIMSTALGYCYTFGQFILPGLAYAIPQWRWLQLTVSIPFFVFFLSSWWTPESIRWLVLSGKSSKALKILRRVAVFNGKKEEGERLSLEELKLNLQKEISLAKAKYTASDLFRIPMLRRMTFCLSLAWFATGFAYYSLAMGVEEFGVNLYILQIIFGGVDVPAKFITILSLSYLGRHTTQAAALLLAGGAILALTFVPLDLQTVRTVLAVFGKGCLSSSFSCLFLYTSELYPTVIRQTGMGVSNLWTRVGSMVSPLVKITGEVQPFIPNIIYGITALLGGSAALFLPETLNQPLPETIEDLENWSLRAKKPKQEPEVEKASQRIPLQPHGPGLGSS
Put plainly: Further OAT3 uptake inhibition assay (Table 2). In kind it is cell-based. Particulars: human, MDCK-II cells expressing human OAT3, probe 10 μM PAH (p-aminohippurate); compound 1 μM; PAH 10 μM; mean and SD of triplicate. On the procedure: (§1) In a further assay, the effects of several other compounds (including compounds 2, 3, and 4) were assessed against OAT3. The assay was carried out using a similar procedure as described above, using para-aminohippurate (PAH) and estrone-3-sulfate (E3S) as the substrates for measuring OAT3-mediated transport. […] MDCK-II cells were grown in 96-well cell culture plates, and the cell plates are maintained at 37° C. in 5% CO2 atmosphere prior to initiation of the transport experiment. MDCK-II cells were maintained in DMEM with low glucose and 10% FBS. Cells passages up to 40 are seeded at 60K±10K cells/well on 96-well, transwell membrane plates approximately 24 hours before transfection. Transport assays were carried out approximately 48 hours after transfection. Radio-labeled para-aminohippurate ([3H]-PAH) and estrone-3-sulfate (E3S) were used as substrates for measuring OAT3-mediated transport, where the transport of the substrate was determined by radiometric detection. Probenecid was used as a reference inhibitor. Transport study samples were run in triplicate.
(§2) For uptake assays, the net transporter-mediated uptake rate (V) of the substrate by each SLC transporter was calculated as follows:
(§3) Transporter-mediated uptake rate(pmol/min/cm^2)=((Cellular accumulation in cells expressing the transporter)−(Mean cellular accumulation in control cells))/Incubation time.
(§4) Percent inhibition was calculated by dividing the transporter-mediated uptake rate in presence of the test article or the reference inhibitor by the transporter-mediated uptake rate in presence of vehicle control:
(§5) Percent inhibition=100−(100×(transporter-mediated uptake rate)with inhibitor/(transporter-mediated uptake rate)vehicle control)
(§6) For uptake assays, statistical analyses using an unpaired t test was performed between transporter-mediated uptake rate or ATP-dependent transport rate of probe substrate with vehicle control and the inhibitor. A p value of <0.05 was considered statistically significant.
(§7) Table 2 summarizes the inhibitory activity of these compounds against OAT3 in the uptake of probe substrate PAH (p-aminohippurate) or E3S (estrone-3-sulfate). The percent inhibition values were determined by testing compounds at a single concentration of 1 μM with a PAH concentration of 10 μM. Data represent the mean and standard deviation of triplicate samples. The IC50 values were calculated by means of a concentration response curve with a compound concentration range of 0.03-10 μM and a probe substrate concentration of 10 μM PAH or 0.1 μM E3S. The percent inhibition at the various concentrations was run in triplicate and the IC50 value was determined by non-linear regression using GraphPad Prism.

A further data set deals with T2, human transporter OAT3 (Homo sapiens, UniProt Q8TCC7).
T2 construct: expressed in transfected cells; host or cells: MDCK-II
T2 sequence (Q8TCC7 1-542): T1 sequence (Q8TCC7 1-542)
Kind of data set: Further OAT3 uptake inhibition assay (Table 2). In kind it is cell-based. The note with it: compound 0.03-10 μM. Here is the method: as §1, §2, §3, §4, §5, §6, §7

Setting [1] is: 0.1 μM E3S, read-out: OAT3 inhibition substrate = E3S (IC50).
[2] abbreviates: 10 μM PAH, read-out: OAT3 inhibition substrate = PAH (IC50).

pIC50: −log10 of the molar value. Where two headings read alike, the source gives them in different places.

For `O=S(=O)(c1ccc(-n2cn[nH]c2=S)c(N2CCOCC2)c1)c1ccc(Cl)c(C(F)(F)F)c1` [Compound 2, 4-(4-((4-chloro-3-(trifluoromethyl)phenyl)sulfonyl)-2-morpholinophenyl)-2,4-dihydro-3H-1,2,4-triazole-3-thione], at OAT3, the inhibition at 1 μM is 48%. Moreover, the pIC50 on human transporter OAT3 (setting [1]) is 5.72; on human transporter OAT3 (setting [2]) it was 5.87.
On to `O=S(=O)(c1ccccc1)c1ccc(-n2cn[nH]c2=S)cc1` [Compound 3, 4-(4-(phenylsulfonyl)phenyl)-2,4-dihydro-3H-1,2,4-triazole-3-thione], for which, at OAT3, the inhibition at 1 μM turned out to be 33.1%.
With `O=S(=O)(c1ccc(Cl)cc1)c1ccc(-n2cn[nH]c2=S)cc1` [Compound 4, 4-(4-((4-chlorophenyl)sulfonyl)phenyl)-2,4-dihydro-3H-1,2,4-triazole-3-thione], on OAT3, the inhibition at 1 μM is 76.3%.
Consider `Cc1cc(S(=O)(=O)c2ccc(-n3cn[nH]c3=S)cc2)ccc1Cl` [Compound 5, 4-(4-((4-chloro-3-methylphenyl)sulfonyl)phenyl)-2,4-dihydro-3H-1,2,4-triazole-3-thione], for which the inhibition at 1 μM against OAT3 stood at 86.5%.
With `O=S(=O)(c1ccc(-n2cn[nH]c2=S)cc1)c1cccc(C(F)(F)F)c1` [Compound 11, 4-(4-((3-(trifluoromethyl)phenyl)sulfonyl)phenyl)-2,4-dihydro-3H-1,2,4-triazole-3-thione], the inhibition at 1 μM against OAT3 is 58.6%.
`COc1cccc(S(=O)(=O)c2ccc(-n3cn[nH]c3=S)cc2)c1` [Compound 12, 4-(4-((3-methoxyphenyl)sulfonyl)phenyl)-2,4-dihydro-3H-1,2,4-triazole-3-thione]: the inhibition at 1 μM against OAT3 worked out at 48.4%.
As for `CN(C)c1cccc(S(=O)(=O)c2ccc(-n3cn[nH]c3=S)cc2)c1` [Compound 15, 4-(4-((3-(dimethylamino)phenyl)sulfonyl)phenyl)-2,4-dihydro-3H-1,2,4-triazole-3-thione], the inhibition at 1 μM against OAT3 came to 60.1%.
Turning to `O=S(=O)(c1ccc(-n2cn[nH]c2=S)c(N2CCCCC2)c1)c1ccc(Cl)c(C(F)(F)F)c1` [Compound 19, 4-(4-((4-chloro-3-(trifluoromethyl)phenyl)sulfonyl)-2-(piperidin-1-yl)phenyl)-2,4-dihydro-3H-1,2,4-triazole-3-thione], the inhibition at 1 μM against OAT3 was 43%.
As for `CN1CCN(c2cc(S(=O)(=O)c3ccc(Cl)c(C(F)(F)F)c3)ccc2-n2cn[nH]c2=S)CC1` [Compound 20, 4-(4-((4-chloro-3-(trifluoromethyl)phenyl)sulfonyl)-2-(4-methylpiperazin-1-yl)phenyl)-2,4-dihydro-3H-1,2,4-triazole-3-thione], on OAT3, the inhibition at 1 μM amounted to 17.2%.
For `CCN(CC)c1cc(S(=O)(=O)c2ccc(Cl)c(C(F)(F)F)c2)ccc1-n1cn[nH]c1=S` [Compound 21, 4-(4-((4-chloro-3-(trifluoromethyl)phenyl)sulfonyl)-2-(diethylamino)phenyl)-2,4-dihydro-3H-1,2,4-triazole-3-thione], on OAT3, the inhibition at 1 μM is 48.2%.
For the compound `CCOCCOc1cc(S(=O)(=O)c2ccc(Cl)c(C(F)(F)F)c2)ccc1-n1cn[nH]c1=S` [Compound 22, 4-(4-((4-chloro-3-(trifluoromethyl)phenyl)sulfonyl)-2-(2-ethoxyethoxy)phenyl)-2,4-dihydro-3H-1,2,4-triazole-3-thione], the inhibition at 1 μM on OAT3 is 79.5%.
In the case of `CSc1nncn1-c1ccc(S(=O)(=O)c2ccc(Cl)c(C(F)(F)F)c2)cc1` [Compound 26, 4-(4-((4-chloro-3-(trifluoromethyl)phenyl)sulfonyl)phenyl)-3-(methylthio)-4H-1,2,4-triazole], the inhibition at 1 μM on OAT3 worked out at 9.78%. In addition, the figures for the pIC50 at human transporter OAT3 (setting [1]) and at human transporter OAT3 (setting [2]) were 5.06 and 5.12, respectively.
As for `FC(F)(F)c1cc(Oc2ccc(-n3cn[nH]c3=S)cc2)ccc1Cl` [Compound 30, 4-(4-(4-chloro-3-(trifluoromethyl)phenoxy)phenyl)-2,4-dihydro-3H-1,2,4-triazole-3-thione], on OAT3, the inhibition at 1 μM was 86.3%.
As to `O=S(=O)(c1ccc(-n2cc[nH]c2=S)cc1)c1ccc(Cl)c(C(F)(F)F)c1` [Compound 31, 1-(4-(4-chloro-3-(trifluoromethyl)phenylsulfonyl)phenyl)-1H-imidazole-2(3H)-thione], the inhibition at 1 μM at OAT3 was -1.05%.
Regarding `O=c1[nH]ccn1-c1ccc(S(=O)(=O)c2ccc(Cl)c(C(F)(F)F)c2)cc1` [Compound 32, 1-(4-((4-chloro-3-(trifluoromethyl)phenyl)sulfonyl)phenyl)-1,3-dihydro-2H-imidazol-2-one], the inhibition at 1 μM against OAT3 was -9.18%.
In the case of `O=S(=O)(Nc1ccc(Cl)c(C(F)(F)F)c1)c1ccc(-n2cn[nH]c2=S)cc1` [Compound 33, N-(4-chloro-3-(trifluoromethyl)phenyl)-4-(5-thioxo-1H-1,2,4-triazol-4(5H)-yl)benzenesulfonamide], the inhibition at 1 μM on OAT3 is 94.1%.
`CS(=O)(=O)N1CCN(Cc2nnc(Nc3ccc(S(=O)(=O)c4ccc(Cl)cc4)cc3)s2)CC1` [Compound X1]: the pIC50 at human transporter OAT3 (setting [1]) and at human transporter OAT3 (setting [2]) was under 4.52 each time.
Regarding `Nc1ncc(-c2cc(N3CCOCC3)cc(S(=O)(=O)c3ccccc3)c2)cn1` [Compound X2], the pIC50 at human transporter OAT3 (setting [1]) and on human transporter OAT3 (setting [2]) was under 4.52 each time.

Broadly, the inhibition is the relative decrease from the control value, in per cent. A word on the pIC50: it is the negative decadic logarithm of the IC50, by convention in mol/L.

Values taken from US20210290597A1, “METHOD OF TREATING A CONDITION ASSOCIATED WITH NEURODEGENERATION USING INHIBITORS OF OAT3” (Neuropore Therapies, Inc., priority 2018, published 2021).
